Laboratory results: paper PMC3577944 (Nature chemical biology, 2013)
Positions count from the first letter of the chain named. pEC50: −log10 of the molar value. Entries after “also recorded” stand apart in the source; their conditions may differ. No end group written: not given here.

Key:
[1] = system: Histone demethylases (15 targets); assay: Lysine demethylase selectivity, differential scanning fluorimetry; assay type: binding
hM2 = target: T1, hM2 (Homo sapiens, UniProt P08172); assay: M2 cAMP biosensor functional assay; assay type: cell-based
T1 sequence (P08172 1-466): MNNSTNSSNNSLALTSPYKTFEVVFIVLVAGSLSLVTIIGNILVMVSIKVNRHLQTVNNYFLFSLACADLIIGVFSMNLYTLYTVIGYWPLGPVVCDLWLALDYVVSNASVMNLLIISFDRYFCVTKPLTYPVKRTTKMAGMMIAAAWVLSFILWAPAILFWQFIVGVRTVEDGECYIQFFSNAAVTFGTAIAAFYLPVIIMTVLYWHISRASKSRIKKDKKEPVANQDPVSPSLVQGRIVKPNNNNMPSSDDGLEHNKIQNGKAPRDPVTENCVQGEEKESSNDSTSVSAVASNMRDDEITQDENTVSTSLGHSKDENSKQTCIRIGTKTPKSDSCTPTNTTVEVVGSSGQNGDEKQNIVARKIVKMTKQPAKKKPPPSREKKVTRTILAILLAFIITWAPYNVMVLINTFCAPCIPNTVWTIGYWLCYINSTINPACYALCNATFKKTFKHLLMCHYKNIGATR

L3MBTL3 (3MBT) [2] = target: T2, L3MBTL3 (3MBT) (Homo sapiens, UniProt Q96JM7); assay: H4K20me2 peptide pull-down competition; details: increasing concentrations
T2 sequence (Q96JM7 168-555 limits assumed): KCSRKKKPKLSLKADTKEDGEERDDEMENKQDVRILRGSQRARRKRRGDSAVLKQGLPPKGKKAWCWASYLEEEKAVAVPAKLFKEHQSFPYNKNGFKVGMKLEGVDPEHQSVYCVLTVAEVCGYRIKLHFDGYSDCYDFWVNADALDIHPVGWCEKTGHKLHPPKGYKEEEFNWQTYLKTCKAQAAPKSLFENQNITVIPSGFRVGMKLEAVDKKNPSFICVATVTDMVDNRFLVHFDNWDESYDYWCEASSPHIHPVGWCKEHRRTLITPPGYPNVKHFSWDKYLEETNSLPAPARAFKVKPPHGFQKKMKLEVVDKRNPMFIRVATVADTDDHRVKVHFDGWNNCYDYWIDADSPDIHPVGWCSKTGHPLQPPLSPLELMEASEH

[3] = target: T3, flag-3MBT / BCLAF1 interaction (Homo sapiens, UniProt Q96JM7); assay: Co-immunoprecipitation of BCLAF1 with flag-3MBT; assay type: cell-based; details: 1 μM, 18 hours, HEK293 cells
T3 sequence (Q96JM7 225-555 limits assumed): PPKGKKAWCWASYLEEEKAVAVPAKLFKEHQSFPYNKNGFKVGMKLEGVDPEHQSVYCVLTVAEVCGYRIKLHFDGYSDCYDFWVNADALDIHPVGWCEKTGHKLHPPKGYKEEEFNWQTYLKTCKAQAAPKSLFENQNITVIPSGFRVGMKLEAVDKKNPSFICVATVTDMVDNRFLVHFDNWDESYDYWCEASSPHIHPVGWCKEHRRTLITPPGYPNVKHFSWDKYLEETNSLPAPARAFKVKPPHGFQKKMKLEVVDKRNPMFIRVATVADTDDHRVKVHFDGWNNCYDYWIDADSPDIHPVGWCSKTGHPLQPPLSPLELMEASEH

[4] = system: G9a, EHMT1, SUV39H2, PRMT3, SETD7, SETD8, DNMT1, MLL, PRC2, PRMT5; assay: Histone methyltransferase selectivity, radioactive SAM methyl transfer; assay type: biochemical
H277A 3MBT = target: T4, H277A 3MBT (Homo sapiens, UniProt Q96JM7, H277A); assay: ITC, H277A mutant; assay type: binding; details: relative to wild-type
T4 sequence (Q96JM7 225-555 H277A): T3 sequence (Q96JM7 225-555 limits assumed) with H53A

[5] = target: T5, GFP-FLMBT (full length L3MBTL3) (Homo sapiens, UniProt Q96JM7); assay: FRAP of GFP-FLMBT; assay type: cell-based; details: lesser extent than GFP-3MBT
T5 sequence (Q96JM7 1-755 isoform Q96JM7-2): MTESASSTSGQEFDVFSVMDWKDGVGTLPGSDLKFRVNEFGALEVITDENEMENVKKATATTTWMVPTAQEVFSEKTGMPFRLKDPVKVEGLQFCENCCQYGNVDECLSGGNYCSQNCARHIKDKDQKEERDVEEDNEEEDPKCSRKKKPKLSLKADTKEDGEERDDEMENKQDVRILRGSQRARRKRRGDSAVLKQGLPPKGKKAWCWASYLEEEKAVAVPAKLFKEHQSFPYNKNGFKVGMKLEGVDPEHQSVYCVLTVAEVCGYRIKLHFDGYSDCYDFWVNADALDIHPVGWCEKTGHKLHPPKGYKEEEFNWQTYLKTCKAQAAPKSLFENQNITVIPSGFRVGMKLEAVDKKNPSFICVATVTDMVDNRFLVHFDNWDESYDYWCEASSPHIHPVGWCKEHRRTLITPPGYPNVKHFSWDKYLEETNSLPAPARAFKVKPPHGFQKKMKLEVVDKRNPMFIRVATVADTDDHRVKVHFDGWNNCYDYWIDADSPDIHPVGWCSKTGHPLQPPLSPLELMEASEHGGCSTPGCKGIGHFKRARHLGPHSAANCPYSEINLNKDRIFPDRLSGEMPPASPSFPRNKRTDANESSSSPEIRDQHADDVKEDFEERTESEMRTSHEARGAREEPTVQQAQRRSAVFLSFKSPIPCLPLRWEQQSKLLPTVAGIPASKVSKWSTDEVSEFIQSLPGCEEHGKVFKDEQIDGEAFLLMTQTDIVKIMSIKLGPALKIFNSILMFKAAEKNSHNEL

D381A 3MBT = target: T6, D381A 3MBT (Homo sapiens, UniProt Q96JM7, D381A); assay: ITC, domain 2 mutant; details: domain 2 binding pocket mutant
T6 sequence (Q96JM7 225-555 D381A): T3 sequence (Q96JM7 225-555 limits assumed) with D157A

HEK293T/17 cells = assay: CellTiter-Glo luminescent cell viability assay; assay type: cell-based, human; details: up to 100 µM, 24 hours
53BP1 = 53BP1 (Homo sapiens, UniProt Q12888); assay: H4K20me2 peptide pull-down competition; details: increasing concentrations
Sequence of 53BP1 (Q12888 1459-1634): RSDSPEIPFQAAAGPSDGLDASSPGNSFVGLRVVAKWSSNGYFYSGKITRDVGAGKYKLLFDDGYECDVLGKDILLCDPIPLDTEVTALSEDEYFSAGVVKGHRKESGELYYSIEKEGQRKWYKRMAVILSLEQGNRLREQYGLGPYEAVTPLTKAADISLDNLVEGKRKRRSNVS

[6] = target: T7, GFP-FLMBT foci in 293 or U2OS cells (Homo sapiens, UniProt Q96JM7); assay: GFP-FLMBT nuclear foci formation; assay type: cell-based; details: N-terminally tagged full length L3MBTL3
T7 sequence (Q96JM7 1-755 isoform Q96JM7-2): T5 sequence (Q96JM7 1-755 isoform Q96JM7-2)

[7] = target: T8, GFP-3MBT (L3MBTL3 MBT domains) in HEK293 cells (Homo sapiens, UniProt Q96JM7); assay: FRAP of GFP-3MBT; assay type: cell-based
T8 sequence (Q96JM7 200-530 isoform Q96JM7-2 limits assumed): T3 sequence (Q96JM7 225-555 limits assumed)

[8] = target: T9, flag-FLMBT / BCLAF1 interaction (Homo sapiens, UniProt Q96JM7); assay: Co-immunoprecipitation of BCLAF1 with flag-FLMBT; assay type: cell-based; details: 1 μM, 18 hours, HEK293 cells
T9 sequence (Q96JM7 1-755 isoform Q96JM7-2): T5 sequence (Q96JM7 1-755 isoform Q96JM7-2)

[9] = system: Bromodomains (12 targets); assay: Bromodomain selectivity, differential scanning fluorimetry; assay type: binding; details: at 10 µM versus 12 targets
D274A 3MBT = target: T10, D274A 3MBT (Homo sapiens, UniProt Q96JM7, D274A); assay: ITC, domain 1 mutant; assay type: binding
T10 sequence (Q96JM7 225-555 D274A): T3 sequence (Q96JM7 225-555 limits assumed) with D50A

hM1 = target: T11, hM1 (Homo sapiens, UniProt P11229); assay: M1 Ca2+ mobilization functional assay; assay type: cell-based
T11 sequence (P11229 1-460): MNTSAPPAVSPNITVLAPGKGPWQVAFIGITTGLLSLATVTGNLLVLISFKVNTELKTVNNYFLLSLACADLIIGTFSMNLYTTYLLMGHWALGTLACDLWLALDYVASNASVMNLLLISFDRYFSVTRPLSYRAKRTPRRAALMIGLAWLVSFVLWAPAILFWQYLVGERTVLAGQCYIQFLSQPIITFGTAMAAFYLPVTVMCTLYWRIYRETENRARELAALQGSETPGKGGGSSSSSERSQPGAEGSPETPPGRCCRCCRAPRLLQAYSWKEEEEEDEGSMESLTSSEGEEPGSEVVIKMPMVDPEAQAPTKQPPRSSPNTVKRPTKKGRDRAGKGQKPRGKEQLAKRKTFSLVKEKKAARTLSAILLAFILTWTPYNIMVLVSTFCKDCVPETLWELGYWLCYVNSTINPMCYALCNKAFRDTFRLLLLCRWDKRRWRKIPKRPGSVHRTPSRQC

L3MBTL3 (3MBT) [10] = target: T12, L3MBTL3 (3MBT) (Homo sapiens, UniProt Q96JM7); assay type: binding; details: similar affinity to H4K20me histone peptides
T12 sequence (Q96JM7 225-555): T3 sequence (Q96JM7 225-555 limits assumed)

Row | Compound | Tm shift, lysine demethylases [1] | agonist activity, M2 (hM2) | antagonism of L3MBTL3 (3MBT) H4K20me2 pull-down, in words (L3MBTL3 (3MBT) [2]) | interaction between flag-3MBT and BCLAF1, in words [3] | activity against panel of histone methyltransferases, in words [4] | binding to H277A 3MBT by ITC, in words (H277A 3MBT) | mobility of GFP-FLMBT by FRAP, in words [5] | binding to D381A 3MBT by ITC, in words (D381A 3MBT) | cytotoxicity (CellTiter-Glo cell viability) (HEK293T/17 cells) | antagonism of 53BP1 H4K20me2 pull-down, in words (53BP1) | effect on GFP-FLMBT foci formation, in words [6] | pEC50 [7] | interaction between flag-FLMBT and BCLAF1, in words [8] | Tm shift, bromodomains [9] | binding diminished relative to wildtype, D274A 3MBT (D274A 3MBT) | agonist activity, M1 (hM1) | displacement of H4K20me2 from L3MBTL3 by AlphaScreen, in words (L3MBTL3 (3MBT) [10])
1 | O=C(c1ccc(C(=O)N2CCC(N3CCCC3)CC2)c(Nc2ccccc2)c1)N1CCC(N2CCCC2)CC1 [UNC1215] | < 0.5 °C | no agonist activity | nanomolar potency | substantially reduced; also recorded: disrupts the interaction | inactive | marked loss of affinity | found to increase | completely abolished; also recorded: completely abrogates binding | no observable level of cytotoxicity | much weaker affinity; also recorded: micromolar antagonism | relatively ineffective at inhibiting foci formation; also recorded: could no longer be disrupted | 7.00 to 7.30 | reduced to a lesser extent; also recorded: reduces the interaction | < 0.5 °C | about 30 fold | no agonist activity | –
2 | BCLAF1 Kme peptide: K445me containing BCLAF1 peptide (residues 438-452) (YKSKVSLK(Me)GNRESDG) | – | – | – | – | – | – | – | – | – | – | – | – | – | – | – | – | effectively displaces H4K20me2
